{"source": "patent US7250409B2", "about": "“Ningalin B analogs employable for reversing multidrug resistance” (The Scripps Research Institute, priority 2000, dated 2007)", "key": {"HCT116": {"tested_on": "HCT116", "test": "Cytotoxic activity against wild-type HCT116", "type": "cell-based, human", "method": "(§1) Cytotoxic Activity and Reversal of Multidrug Resistance. […] (Quesada, A. R.; et al. Br. J. Cancer 1996, 74, 677.) With exception of ningalin A, (Ningalin A, lamellarin O, lukianol A, and permethyl storniamide A: Boger, D. L.; et al. J. Am. Chem. Soc. 1999, 121, 54.) the biological evaluation of the ningalin family has not been explored. Consequently, ningalin B and a number of structurally related synthetic intermediates were tested in a L1210 cytotoxic assay, and the results are summarized in FIGS. 6 and 10. […] (Ningalin A, lamellarin O, lukianol A, and permethyl storniamide A: Boger, D. L.; et al. J. Am. Chem. Soc. 1999, 121, 54.)\n(Quesada, A. R.; et al. Br. J. Cancer 1996, 74, 677.) P-gp is a 170 kDa plasma membrane glycoprotein encoded in humans by the MDR1 gene which exports drugs out of mammalian cells, lowering their intracellular concentration. (Patel, N. H.; et al. Invest. New Drugs 1994, 12, 1. Gottesman, M. M.; et al. Annu. Rev. Biochem. 1993, 62, 385.) Therefore, 7-14 were also tested against a wild-type human colon cancer cell line (HCT116) and two resistant HCT116 cell lines. The first resistant cell line (HCT116/VM46) embodies the MDR phenotype and overexpresses P-glycoprotein while the second cell line (HCT116/VP35) derives its resistance through underexpression of topoisomerase II. The examination of the latter cell line along with the wild-type HCT116 and their comparison with HCT116VM46 allows an accurate assessment of the MDR sensitivity as well as an assessment of one potential therapeutic target."}, "HCT116/VM46": {"tested_on": "HCT116/VM46", "test": "Reversal of multidrug resistance: resensitizing HCT116/VM46 to vinblastine and doxorubicin", "type": "cell-based, human", "conditions": "for resensitization of HCT116/VM46 compared with verapamil: vinblastine and doxorubicin"}, "L1210": {"tested_on": "L1210", "test": "L1210 cytotoxic assay", "type": "cell-based", "text": "FIG. 6 illustrates a table with a comparison of the cytotoxic activity of ningalin B and some analogs with some commonly used compounds against three different cell lines.\nas §1"}, "Pgp-170": {"molecular_target": "T1, Pgp-170 (Homo sapiens, UniProt P08183)", "T1 construct": "The first resistant cell line (HCT116/VM46) embodies the MDR phenotype and overexpresses P-glycoprotein; endogenous in cells; host or cells: HCT116/VM46 (drug-resistant human colon cancer cell line)", "T1 sequence (P08183 whole entry)": "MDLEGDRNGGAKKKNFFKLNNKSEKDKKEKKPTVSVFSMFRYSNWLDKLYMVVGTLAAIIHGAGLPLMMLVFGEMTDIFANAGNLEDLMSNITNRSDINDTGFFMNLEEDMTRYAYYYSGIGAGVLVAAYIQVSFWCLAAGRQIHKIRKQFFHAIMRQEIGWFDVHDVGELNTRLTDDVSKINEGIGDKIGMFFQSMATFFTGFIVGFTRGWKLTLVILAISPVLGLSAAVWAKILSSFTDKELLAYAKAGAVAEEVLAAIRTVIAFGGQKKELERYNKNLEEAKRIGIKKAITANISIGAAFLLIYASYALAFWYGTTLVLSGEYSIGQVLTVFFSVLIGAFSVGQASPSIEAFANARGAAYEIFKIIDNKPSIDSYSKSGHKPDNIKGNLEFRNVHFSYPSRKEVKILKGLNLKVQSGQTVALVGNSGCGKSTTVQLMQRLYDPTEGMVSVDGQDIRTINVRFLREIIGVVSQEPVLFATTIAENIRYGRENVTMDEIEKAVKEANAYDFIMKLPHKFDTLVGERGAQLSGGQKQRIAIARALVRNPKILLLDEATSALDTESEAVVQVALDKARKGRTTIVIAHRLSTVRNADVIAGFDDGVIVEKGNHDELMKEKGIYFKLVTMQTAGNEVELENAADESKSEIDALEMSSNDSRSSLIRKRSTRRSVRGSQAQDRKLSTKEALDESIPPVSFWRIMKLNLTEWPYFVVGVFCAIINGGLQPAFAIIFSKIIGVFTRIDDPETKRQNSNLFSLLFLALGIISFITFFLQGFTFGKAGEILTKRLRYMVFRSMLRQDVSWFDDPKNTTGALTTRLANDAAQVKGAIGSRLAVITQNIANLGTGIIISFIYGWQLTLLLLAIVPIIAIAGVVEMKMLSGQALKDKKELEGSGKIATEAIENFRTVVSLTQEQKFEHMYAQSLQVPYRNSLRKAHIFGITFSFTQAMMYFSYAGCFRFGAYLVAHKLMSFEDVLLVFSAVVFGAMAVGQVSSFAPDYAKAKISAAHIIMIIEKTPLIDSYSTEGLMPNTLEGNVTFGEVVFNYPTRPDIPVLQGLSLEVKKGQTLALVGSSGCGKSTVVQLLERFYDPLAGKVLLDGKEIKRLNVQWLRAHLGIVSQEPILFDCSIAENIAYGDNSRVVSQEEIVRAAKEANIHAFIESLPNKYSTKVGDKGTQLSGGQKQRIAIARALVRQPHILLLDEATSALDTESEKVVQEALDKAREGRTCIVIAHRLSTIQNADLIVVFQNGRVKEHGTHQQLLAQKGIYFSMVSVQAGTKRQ", "test": "Inhibition of dye efflux (rhodamine 123) from HCT116/VM46", "type": "cell-based", "conditions": "30 min incubation in rhodamine 123 in phosphate buffer solution", "method": "FIG. 8 illustrates the inhibition of dye efflux (rhodamine 123) from the HCT116/VM46 cell line. Accumulation of rhodamine 123 in the HCT116/VM46 cell line after 30 min incubation in […] rhodamine in phosphate buffer solution (Quesada, A. R.; et al., Br. J. Cancer 1996, 74, 677).\nFundamentally more important, many of the agents were found capable of reversing MDR at noncytotoxic concentrations, resensitizing HCT116/VM46 to vinblastine and doxorubicin (FIGS. 7 and 11)."}, "[1]": {"conditions": "cytotoxic activity relative to ningalin B"}}, "note": "“Also recorded” adds a separate entry of the source."}
{"smiles": "COCOc1cc(OC)c(OC)cc1-c1c(-c2ccc(OC)c(OC)c2)c(C(=O)OC)n(CCc2ccc(OC)c(OC)c2)c1C(=O)OC", "note": "[compound 10, Dimethyl 3-(4,5-Dimethoxy-2-(methoxymethoxy)phenyl)-4-(3,4-dimethoxyphenyl)-1-[2-(3,4-dimethoxyphenyl)ethyl]pyrrole-2,5-dicarboxylate]", "values": [{"measurement": "inherent cytotoxic activity (cell line not given)", "setting": "HCT116", "result": "lacking inherent cytotoxic activity"}, {"measurement": "ability to resensitize HCT116/VM46 to vinblastine and doxorubicin", "setting": "HCT116/VM46; agent at 1 μM", "result": "able to resensitize"}, {"measurement": "resensitization of HCT116/VM46 compared with verapamil", "setting": "HCT116/VM46; agent at 1 μM", "result": "more effectively than verapamil"}, {"measurement": "MDR reversal in HCT116/VM46", "setting": "HCT116/VM46; agent at 7.5 μM", "result": "complete MDR reversal"}, {"measurement": "MDR reversal, resensitizing HCT116/VM46 to vinblastine and doxorubicin", "setting": "HCT116/VM46; concentration not given", "result": "potently reverse MDR"}]}
{"smiles": "COC(=O)c1c(-c2ccc(OC)c(OC)c2)c2c3cc(OC)c(OC)cc3oc(=O)c2n1CCc1ccc(OC)c(OC)c1", "note": "[compound 11, Methyl 7,8-Dimethoxy-3-(2-(3,4-dimethoxyphenyl)ethyl)-1-(3,4-dimethoxyphenyl)-[1]-benzopyrano[3,4-b]pyrrol-4(3B)-one-2-carboxylate]", "values": [{"measurement": "MDR reversal in HCT116/VM46", "setting": "HCT116/VM46; agent at 1 μM", "result": "complete MDR reversal"}, {"measurement": "ability to resensitize HCT116/VM46 to vinblastine and doxorubicin", "setting": "HCT116/VM46; agent at 1 μM", "result": "able to resensitize"}, {"measurement": "resensitization of HCT116/VM46 compared with verapamil", "setting": "HCT116/VM46; agent at 1 μM", "result": "more effectively than verapamil"}, {"measurement": "MDR reversal in HCT116/VM46", "setting": "HCT116/VM46; agent at 7.5 μM", "result": "hypersensitive to vinblastine"}, {"measurement": "MDR reversal, resensitizing HCT116/VM46 to vinblastine and doxorubicin", "setting": "HCT116/VM46; concentration not given", "result": "potently reverse MDR"}]}
{"smiles": "COc1ccc(CCn2cc(-c3ccc(OC)c(OC)c3)c3c4cc(OC)c(OC)cc4oc(=O)c32)cc1OC", "note": "[compound 13, Hexamethyl Ningalin B]", "values": [{"measurement": "fold less active against HCT116 than ningalin B", "setting": "HCT116; [1]", "result": 2.5, "unit": "fold"}, {"measurement": "fold less active against L1210 than ningalin B", "setting": "L1210; [1]", "result": 5, "unit": "fold"}, {"measurement": "MDR reversal in HCT116/VM46", "setting": "HCT116/VM46; agent at 1 μM", "result": "complete MDR reversal"}, {"measurement": "ability to resensitize HCT116/VM46 to vinblastine and doxorubicin", "setting": "HCT116/VM46; agent at 1 μM", "result": "able to resensitize"}, {"measurement": "resensitization of HCT116/VM46 compared with verapamil", "setting": "HCT116/VM46; agent at 1 μM", "result": "more effectively than verapamil"}, {"measurement": "MDR reversal in HCT116/VM46", "setting": "HCT116/VM46; agent at 7.5 μM", "result": "hypersensitive to vinblastine"}, {"measurement": "MDR reversal, resensitizing HCT116/VM46 to vinblastine and doxorubicin", "setting": "HCT116/VM46; concentration not given", "result": "potently reverse MDR"}]}
{"smiles": "COc1ccc(-c2c3n(c4c(=O)oc5cc(OC)c(OC)cc5c24)CCc2cc(OC)c(OC)cc2C3=O)cc1OC", "note": "[compound 14, 9,10-Dihydro-12,13-dimethoxy-1-(3′,4′-dimethoxyphenyl)-3,4-dimethoxy-[4,3-d]-[1]-benzopyrano-15H-benzazepino[3,2-a]-[3]-pyrrol-7,15(18H)-dione]", "values": [{"measurement": "inherent cytotoxic activity (cell line not given)", "setting": "HCT116", "result": "lacking inherent cytotoxic activity"}, {"measurement": "dye efflux (rhodamine 123) from HCT116/VM46", "setting": "Pgp-170", "result": "inhibited dye efflux"}, {"measurement": "MDR reversal in HCT116/VM46", "setting": "HCT116/VM46; agent at 1 μM", "result": "hypersensitivity of HCT116/VM46 to vinblastine"}, {"measurement": "ability to resensitize HCT116/VM46 to vinblastine and doxorubicin", "setting": "HCT116/VM46; agent at 1 μM", "result": "able to resensitize"}, {"measurement": "resensitization of HCT116/VM46 compared with verapamil", "setting": "HCT116/VM46; agent at 1 μM", "result": "more effectively than verapamil"}, {"measurement": "MDR reversal, resensitizing HCT116/VM46 to vinblastine and doxorubicin", "setting": "HCT116/VM46; concentration not given", "result": "potently reverse MDR; also recorded: most potent MDR reversal agent identified in this series"}, {"measurement": "sensitivity of HCT116/VM46 towards vinblastine in presence of agent", "setting": "HCT116/VM46; concentration not given, vinblastine", "result": "hypersensitivity towards vinblastine"}]}
{"smiles": "COc1ccc(CCn2c(C(=O)N(C)C)c(-c3ccc(OC)c(OC)c3)c3c4cc(OC)c(OC)cc4oc(=O)c32)cc1OC", "note": "[compound 15, N,N-Dimethyl 7,8-Dimethoxy-3-(2-(3,4-dimethoxyphenyl)ethyl)-1-(3,4-dimethoxyphenyl)-[1]-benzopyrano[3,4-b]pyrrol-4(3H)-one-2-carboxamide]", "values": [{"measurement": "inherent cytotoxic activity (cell line not given)", "setting": "HCT116", "result": "lacking inherent cytotoxic activity"}, {"measurement": "MDR reversal, resensitizing HCT116/VM46 to vinblastine and doxorubicin", "setting": "HCT116/VM46; concentration not given", "result": "potently reverse MDR"}]}
{"smiles": "O=c1oc2cc(O)c(O)cc2c2c(-c3ccc(O)c(O)c3)cn(CCc3ccc(O)c(O)c3)c12", "note": "[ningalin B, Ningalin B]", "values": [{"measurement": "cytotoxic activity against HCT116", "setting": "HCT116; wild-type human colon cancer cell line HCT116", "result": "only moderately active"}, {"measurement": "cytotoxic activity against L1210", "setting": "L1210; L1210 cell line", "result": "only moderately active"}, {"measurement": "MDR reversal, resensitizing HCT116/VM46 to vinblastine and doxorubicin", "setting": "HCT116/VM46; concentration not given", "result": "not"}]}
{"smiles": "COc1ccc(CCN(C)CCCC(C#N)(c2ccc(OC)c(OC)c2)C(C)C)cc1OC", "note": "(stereo not drawn) [verapamil, reference compound]", "values": [{"measurement": "MDR reversal in HCT116/VM46", "setting": "HCT116/VM46; agent at 7.5 μM", "result": "complete reversal"}]}
